Read-outs that look alike come from different tables or passages of the source.
System: Dukin-Hartley guinea pigs
Experiment: Bronchodilating activity in vivo (Konzett and Rossler), histamine bronchospasm
Parameters: species or system guinea pig
Conditions: Cavia porcellus, iv, effective dose for 50% inhibition, anaesthetized guinea pigs
Description: The bronchodilating activity was measured in vivo by the method of Konzett H. and Rossler R. (Arch. Exp. Pathol. Pharmak., 1940, 195, p. 71 to 74) and Duhault J. et al. (Arzneim. Forsch./Drug. res., 1987, 37, p. 1353 to 1362).
Measurement of the bronchodilating activity:
Dukin-Hartley guinea pigs (400-500 g) are prepared according to the methodology described by Konzett and Rossler. The animals are anaesthetized by an intraperitoneal injection of urethane (1.5 g/kg) and a tracheotomy is prepared for artificial respiration (45 cycles/min; respiratory volume 10 ml/kg).
The animal is connected to a respiratory pump, which is adjusted to deliver a volume of 1 ml per 100 g of body weight of the guinea pig. It is connected to a recorder via a pressure sensor.
A catheter is placed in the jugular for the I.V. injections.
An I.V. injection of gallamine and propanolol is carried out. After stabilizing the pulmonary pressure for 30 minutes, an I.V. injection of histamine is carried out every 10 minutes until reproducibility is achieved; at that point, the test product is injected 10 minutes after the last spasm.

[1] = 5 min, I.V. histamine tested 5 minutes after injection of the product, read-out: Bronchospam ED50 at 5 min
[2] = 0.25 h, I.V. histamine tested 15 minutes after injection of the product, read-out: Bronchospam ED50 at 15 min

Row | Compound | ED50 [1] [mg/kg] | ED50 [2] [mg/kg]
1 | CC1(C)C=C(c2cccc[n+]2[O-])c2cc(C#N)ccc2OC1 [Compound 104, 7-Cyano-3,3-dimethyl-5-(2-pyridyl N-oxide)-2,3-dihydro-1-benzoxepine] | 0.038 | 0.21
2 | Cc1cc2c(cc1C#N)OCC(C)(C)C=C2c1cccc[n+]1[O-] [Compound 119] | 0.31 | 0.53
3 | Cc1cc2c(cc1C#N)C(c1cccc[n+]1[O-])=CC(C)(C)CO2 [Compound 118, 7-Cyano-3,3,8-trimethyl-5-(2-pyridyl N-oxide)-2,3-dihydro-1-benzoxepine] | 0.15 | 0.2
4 | CC1(C)C=C(c2cccc[n+]2[O-])c2cc(C#N)ccc2CC1 [Compound 109, 8-Cyano-3,3-dimethyl-1-(2-pyridyl N-oxide)-4,5-dihydro-3H-benzo [f]cycloheptane] | 0.086 | 0.331
5 | CC1(C)C=C(c2cccc[n+]2[O-])c2cc(Cl)ccc2OC1 [Compound 91, 7-Chloro-3,3-methyl-(2-pyridyl N-oxide)-2,3-dihydro-1-benzoxepine] | 0.1 | –
6 | CC1(C)C=C(c2cccc[n+]2[O-])c2cc(C(F)(F)F)ccc2OC1 [Compound 100, 3,3-Dimethyl-5-(2-pyridyl N-oxide)-7-trifluoromethyl-2,3-dihydro-1-benzoxepine] | 0.069 | 0.101
7 | CC1(C)C=C(c2cccc[n+]2[O-])c2cc(Cl)c(Cl)cc2OC1 [Compound 111, 7,8-Dichloro-3,3-dimethyl-5-(2-pyridyl N-oxide)-2,3-dihydro-1-benzoxepine] | 0.049 | 0.1
8 | CC1(C)C=C(c2cccc[n+]2[O-])c2cc(F)c(F)cc2OC1 [Compound 114, 7,8-Difluoro-3,3-dimethyl-5-(2-pyridyl N-oxide) -2,3-dihydro-1-benzoxepine] | 0.04 | 0.3
